Measurements taken from patent US8354398B2, “Substituted isoxazole compounds” (Bristol-Myers Squibb Company, priority 2009, dated 2013).

Tests used:
[1] = tested on: experimental autoimmune encephalomyelitis (clinical score); experiment: Mouse Experimental Autoimmune Encephalomyelitis Assay (EAE); format: in vivo, C57BL/6 mice; settings: for Clinical Score on day 21, Mean: C57BL/6 female mice, vehicle mean 2.79
[2] = molecular target: S1P1 (Homo sapiens, UniProt P21453); experiment: Method B: Receptor [35S] GTPγS SPA Binding Assay, membranes from S1P1 transfected CHO cells; format: biochemical; design: expressed in transfected cells; host or cells: S1P1/CHO cells
Method in brief: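 CHO-cell membranes (2 μg protein) with test compound, 5 μM GDP, saponin and WGA-PVT SPA beads, pH 7.4; reaction started with 0.2 nM [35S]-GTPγS, 90 min at room temperature. Bound counts expressed as % of 1 μM S1P response, EC50 from four-parameter logistic fit; no curves where Ymax below 50%.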

[3] = molecular target: T1, S1P3 (Homo sapiens, UniProt Q99500); experiment: Method B: Receptor [35S] GTPγS SPA Binding Assay, membranes from S1P3 transfected CHO cells; format: biochemical; design: expressed in transfected cells; host or cells: CHO cells; settings: S1P3 transfected CHO cell membranes, NC = a satisfactory dose response curve was not obtained
Protocol: Membranes prepared from S1P1 or S1P3 transfected CHO cells (2 μg protein) were incubated in 96-well white plates (CORNING® 3693) with test compounds diluted in DMSO, in 50 μl of reaction mixture containing 7.5 μl WGA-PVT beads (20 mg/ml), and 5 μM GDP, 20 mM HEPES pH 7.4, 100 mM NaCl, 1 mM EDTA, 5 mM MgCl2, 10 μg/ml saponin, 0.1% BSA, and 1 μM leupeptin. The assay was initiated with the addition of 25 μl of 0.2 nM [^35S]-GTPγS (1250 Ci/mmol; NEN) in assay buffer. After 90 min incubation at room temperature, spin the plate at 1000 rpm for 5 min. The bound radionuclides were measured at TOPCOUNT®, expressed as % response relative to S1P (1 μM) activation. Data was analyzed using the four parameter logistic equation in Excel. The four parameters in the equation, Y=A+((B−A)/(1+((EC50/X)^D))), are described as following: A is the Y value (agonist activity) at the bottom plateau; B is the Y value at the top plateau; EC50 is the X value (agonist concentration) when the response is halfway between bottom and top; D is Hill coefficient. Curves were not generated for compounds having Ymax values were below 50%.
Compounds of the present invention and Comparative Compound A were tested in the Receptor [^35S] GTPγS Binding Assays (Method A) and Receptor [35S] In some instances, the value is an average of multiple experiments where N is the number of experiments conducted that provided satisfactory dose response curves. When more than one batch of an example was tested, the value presented is from a batch which allowed a comparison of GTPγS S1P1 and GTPγS S1P3 in which the most number of experiments were performed. Preferably, the same batch was examined in Method A and Method B. Data was not averaged across different batches of an example compound.
Target sequence in this assay (Q99500 whole entry, species assumed): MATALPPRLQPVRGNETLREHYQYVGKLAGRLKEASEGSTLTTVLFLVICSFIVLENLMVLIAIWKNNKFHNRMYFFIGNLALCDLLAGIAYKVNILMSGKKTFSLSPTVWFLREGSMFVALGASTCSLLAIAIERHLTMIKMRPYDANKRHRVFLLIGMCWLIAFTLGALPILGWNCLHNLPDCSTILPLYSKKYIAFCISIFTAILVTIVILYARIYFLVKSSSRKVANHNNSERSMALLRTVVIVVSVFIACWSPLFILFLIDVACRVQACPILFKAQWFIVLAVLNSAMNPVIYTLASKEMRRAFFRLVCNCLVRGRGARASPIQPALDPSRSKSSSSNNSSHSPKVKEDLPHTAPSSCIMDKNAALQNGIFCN

[4] = tested on: adjuvant induced arthritis (paw swelling); experiment: Rat Adjuvant Induced Arthritis Assay (AA); format: in vivo, Lewis rats; settings: for Paw Swelling (mL) on Day 20, Mean: male Lewis rats, vehicle mean 1.53
Protocol: Male Lewis rats (150-175 g; Harlan, n=8 treatment group) were immunized at the base of the tail with […] of 10 mg/ml freshly ground Mycobacterium butyricum (Difco Laboratories) in incomplete Freund's adjuvant (sigma) Animals were dosed once daily with the test article (as a solution or suspension in the vehicle) or vehicle alone (polyethylene glycol 300, “PEG300”) starting from the day of immunization. The volumes of their hind paws were measured in a water displacement plethysmometer (Ugo Basile, Italy). The baseline paw measurements were taken before onset of the disease (between day 7 to day 10). The paw measurements were then taken three times a week until the end of the study on day 20. All procedures involving animals were reviewed and approved by the Institutional Animal Care Use Committee.

[5] = tested on: circulating lymphocytes; experiment: Blood Lymphocyte Reduction Assay (BLR) in mice; format: in vivo; settings: BALB/c mice, oral, vs vehicle group
Protocol: (§1) Lewis rats or BALB/c mice were dosed orally with test article (as a solution or suspension in the vehicle) or vehicle alone (polyethylene glycol 300, “PEG300”). Blood was drawn at 4 hr and 24 h by retro-orbital bleeding. Blood lymphocyte counts were determined on an ADVIA® 120 Hematology Analyzer (Siemens Healthcare Diagnostics). The results were measured as a reduction in the percentage of circulating lymphocytes as compared to the vehicle treated group at the 4 hr and 24 hr measurement. The results represent the average results of all animals within each treatment group (n=3-4).
(§2) Examples 1 and 2 were tested in the Blood Lymphocyte Reduction assay (BLR) described hereinabove and the results are shown in Table D for rats and Table E for mice.

[6] = molecular target: T1, S1P3; experiment: Method A: Receptor [35S] GTPγS Binding Assay, membranes from EDG3-Ga15-bla HEK293T cells; format: biochemical; design: expressed in transfected cells; host or cells: EDG3-Ga15-bla HEK293T cells; settings: EDG3-Ga15-bla HEK293T cell membranes
Method in brief: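 Membranes ([…]) incubated 45 min at room temperature with 3-fold compound dilutions and 0.2 nM final [35S]GTPγS in HEPES pH 7.5 buffer containing 10 μM GDP, MgCl2, EGTA, DTT, BSA and saponin. Bound label collected by filtration and scintillation counting; EC50 taken at 50% of each compound's Ymax.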
Target sequence in this assay (Q99500 whole entry): as the sequence (Q99500 whole entry, species assumed) above

[7] = tested on: circulating lymphocytes; experiment: Blood Lymphocyte Reduction Assay (BLR) in rats; format: in vivo; settings: Lewis rats, oral, vs vehicle group
Protocol: as §1, §2

S1P1, sequence (P21453 whole entry): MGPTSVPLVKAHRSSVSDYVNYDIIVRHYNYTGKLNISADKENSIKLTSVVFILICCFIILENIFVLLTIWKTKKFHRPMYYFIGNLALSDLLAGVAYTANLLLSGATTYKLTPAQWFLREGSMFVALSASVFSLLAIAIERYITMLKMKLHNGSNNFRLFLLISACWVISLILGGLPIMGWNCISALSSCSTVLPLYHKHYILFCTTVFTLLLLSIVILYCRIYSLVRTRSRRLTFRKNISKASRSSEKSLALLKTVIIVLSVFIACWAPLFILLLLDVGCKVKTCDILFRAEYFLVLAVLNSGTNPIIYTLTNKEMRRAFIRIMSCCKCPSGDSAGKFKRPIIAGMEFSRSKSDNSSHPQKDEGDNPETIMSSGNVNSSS

`O=C(O)C1CN(Cc2ccc(-c3noc(-c4onc(-c5ccccc5)c4C(F)(F)F)n3)cc2)C1` [Example 1, 1-(4-(5-(3-Phenyl-4-(trifluoromethyl)isoxazol-5-yl)-1,2,4-oxadiazol-3-yl)benzyl)azetidine-3-carboxylic acid] was tested, and the “Clinical Score on day 21, Mean” value ([1]; 0.02 mg/kg once daily from 1 day after immunization) was 1.75, the “Clinical Score on day 21, Mean” value ([1]; 0.2 mg/kg once daily from 1 day after immunization) was 1.13 and the “Clinical Score on day 21, Mean” value ([1]; 2.0 mg/kg once daily from 1 day after immunization) was 1.15. For the same molecule, the “disease progression as determined by the clinical scores” value ([1]; C57Bl/6 mice, prophylactic oral dosing) was “inhibits disease progression”, the EC50 ([2]; Method B SPA, S1P1 transfected CHO cell membranes, NC = a satisfactory dose response curve was not obtained) was 0.048 nM and the “GTPγS S1P3/S1P1 (Method B)” value ([2]; ratio of GTPγS S1P3 EC50 to GTPγS S1P1 EC50, Method B) was 11,000. For the same molecule, the EC50 [3] was 510 nM, the “disease progression as measured by paw swelling” value ([4]; Lewis rat, prophylactic oral dosing) was “inhibits disease progression” and the “Paw Swelling (mL) on Day 20, Mean” value ([4]; 0.03 mg/kg once daily from day of immunization) was 1.39 mL. The “Paw Swelling (mL) on Day 20, Mean” value ([4]; 0.1 mg/kg once daily from day of immunization) was 0.55 mL, the “Paw Swelling (mL) on Day 20, Mean” value ([4]; 0.5 mg/kg once daily from day of immunization) was 0.23 mL and the “Paw Swelling (mL) on Day 20, Mean” value ([4]; 3.0 mg/kg once daily from day of immunization) was 0.29 mL. The “% reduction in lymphocytes at 4 hr.” value ([5]; 0.001 mg/kg) was 12%, the “% reduction in lymphocytes at 24 hr.” value ([5]; 0.001 mg/kg) was 31% and the “% reduction in lymphocytes at 4 hr.” value ([5]; 0.01 mg/kg) was 32%. The “% reduction in lymphocytes at 24 hr.” value ([5]; 0.01 mg/kg) was 45%, the “% reduction in lymphocytes at 4 hr.” value ([5]; 0.1 mg/kg) was 85% and the “% reduction in lymphocytes at 24 hr.” value ([5]; 0.1 mg/kg) was 89%. For the same molecule, the “% reduction in lymphocytes at 4 hr.” value ([5]; 1.0 mg/kg) was 90%, the “% reduction in lymphocytes at 24 hr.” value ([5]; 1.0 mg/kg) was 91% and the EC50 [6] was 940 nM. The “% reduction in lymphocytes at 4 hr.” value ([7]; 0.03 mg/kg) was 75%, the “% reduction in lymphocytes at 24 hr.” value ([7]; 0.03 mg/kg) was 45% and the “% reduction in lymphocytes at 4 hr.” value ([7]; 0.3 mg/kg) was 82%. For the same molecule, the “% reduction in lymphocytes at 24 hr.” value ([7]; 0.3 mg/kg) was 73%.
